Reference: patent US8916183B2, “Pesticidal compositions and processes related thereto” (priority 2012, dated 2014)

How the values were obtained:
Format in all cases: in vivo
[1] = tested on: Green Peach Aphid (GPA) (Myzus persicae); test: Bioassay on green peach aphid (GPA), foliar spray on cabbage seedlings; settings: green peach aphid, 200 ppm, read-out: % Mortality GPA 200 ppm
In short: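 Cabbage seedlings (2-3 true leaves), each infested a day earlier with 20-50 wingless adult and nymph GPA, were sprayed on both leaf sides to runoff, four pots per treatment. Corrected % control was calculated against solvent-check plants.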

[2] = tested on: Corn Earworm (CEW) (Helicoverpa zea); test: Bioassay on corn earworm (CEW), 128-well diet tray assay; settings: corn earworm, 50 μg/cm^2; for mortality at 50 µg/cm2: Helicoverpa zea, read-out: % Mortality CEW 50 μg/cm^2
In short: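 Larvae in a 128-well diet tray were held at 25° C under 14:10 light-dark for five to seven days. Percent mortality was scored per well and averaged over eight wells, then reported on a rating scale.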

[3] = tested on: Beet Armyworm (BAW) (Spodoptera exigua); test: Bioassay on beet armyworm (BAW), 128-well diet tray assay; settings: beet armyworm, 50 μg/cm^2; for mortality at 50 µg/cm2: Spodoptera exigua, read-out: % Mortality BAW 50 μg/cm^2

SMILES	mortality at 200 ppm [1]	mortality at 50 µg/cm2 [2]	mortality at 50 µg/cm2 [3]	% Mortality CEW 50 μg/cm^2 [2]	% Mortality BAW 50 μg/cm^2 [3]
Cc1cccc(C)c1-n1c(C)cs/c1=N\N=C\c1ccc(-c2ncn(-c3ccc(OC(F)(F)F)cc3)n2)cc1 [Compound 175C]	0%	50 to 100%	50 to 100%	–	–
FC(F)(F)Oc1ccc(-n2cnc(-c3ccc(/C=N/N=C4\SCCN4c4ccccc4C4CC4)cc3)n2)cc1 [Compound 145C]	0 to 80%	50 to 100%	50 to 100%	–	–
Cc1cccc(C)c1/N=C1\SCC(=O)N1/N=C/c1ccc(-c2ncn(-c3ccc(OC(F)(F)F)cc3)n2)cc1 [Compound 81C]	0%	50 to 100%	50 to 100%	–	–
Cc1cccc(C)c1/N=C(/N/N=C/c1ccc(-c2ncn(-c3ccc(OC(F)(F)F)cc3)n2)cc1)SCc1c(F)cccc1F [Compound 5C]	0 to 80%	50 to 100%	50 to 100%	–	–
O=C1CS/C(=N\N=C\c2ccc(-c3ncn(-c4ccc(OC(F)(F)F)cc4)n3)cc2)N1c1c(F)cccc1Cl [Compound 95C]	0 to 80%	50 to 100%	50 to 100%	–	–
COc1cc(C)c(N2/C(=N/N=C/c3ccc(-c4ncn(-c5ccc(OC(F)(F)F)cc5)n4)cc3)SCC2(C)O)c(C)c1 (stereo not drawn) [Compound 255C]	0%	50 to 100%	50 to 100%	–	–
Cc1cccc(C)c1/N=C(/N/N=C/c1ccc(-c2ncn(-c3ccc(OC(F)(F)F)cc3)n2)cc1)SCc1ccc(OC(F)(F)F)cc1 [Compound 8C]	0 to 80%	50 to 100%	50 to 100%	–	–
Cc1cccc(Cl)c1N1CCCS/C1=N\N=C\c1ccc(-c2ncn(-c3ccc(OC(F)(F)F)cc3)n2)cc1 [Compound 196C]	0%	50 to 100%	50 to 100%	–	–
COc1ccc(N2CCCS/C2=N\N=C\c2ccc(-c3ncn(-c4ccc(OC(F)(F)F)cc4)n3)cc2)cc1 [Compound 202C]	0 to 80%	50 to 100%	50 to 100%	–	–
O=C1CS/C(=N\N=C\c2ccc(-c3ncn(-c4ccc(OC(F)(F)F)cc4)n3)cc2)N1c1c(F)cccc1F [Compound 89C]	0%	50 to 100%	50 to 100%	–	–
Cc1cccnc1N1C(=O)CS/C1=N\N=C\c1ccc(-c2ncn(-c3ccc(OC(F)(F)F)cc3)n2)cc1 [Compound 117C]	0%	50 to 100%	50 to 100%	–	–
COc1cc(C)c(/N=C(/N/N=C/c2ccc(-c3ncn(-c4ccc(OC(F)(F)F)cc4)n3)cc2)SCC(=O)O)c(C)c1.[Na+] [Compound 68C, 2-(((Z)-((4-methoxy-2,6-dimethylphenyl)imino)((E)-2-(4-(1-(4-(trifluoromethoxy)phenyl)-1H-1,2,4-triazol-3-yl)benzylidene)hydrazinyl)methyl)-thio)acetic acid sodium salt]	0 to 80%	–	–	A (50-100)	A (50-100)
Cc1cccc(Cl)c1-n1c(C)cs/c1=N\N=C\c1ccc(-c2ncn(-c3ccc(OC(F)(F)F)cc3)n2)cc1 [Compound 174C]	0 to 80%	50 to 100%	50 to 100%	–	–
Cc1cccc(C)c1-n1c(-c2nccs2)cs/c1=N\N=Cc1ccc(-c2ncn(-c3ccc(OC(F)(F)F)cc3)n2)cc1 [Compound 75C]	0 to 80%	50 to 100%	50 to 100%	–	–
Cc1cccc(C)c1/N=C(/N/N=C/c1ccc(-c2ncn(-c3ccc(OC(F)(F)F)cc3)n2)cc1)SCOC(=O)C(C)(C)C [Compound 36C]	0%	50 to 100%	50 to 100%	–	–
COc1cccc(N2CCCS/C2=N\N=C\c2ccc(-c3ncn(-c4ccc(OC(F)(F)F)cc4)n3)cc2)c1 [Compound 206C]	0%	50 to 100%	50 to 100%	–	–
